Legend:
[1] = Removal of immunosuppressants by acute dialysis (CVVHD, ex vivo, plasma); assay type: in vitro ADME, human
Procedure: (§1) To evaluate the effect of dialysis under clinically relevant conditions, both chronic and acute dialysis settings were simulated using standard Fresenius systems. In all experiments, 1.5 L of citrated human plasma was dialyzed against calcium-free dialysate at 37 °C.
(§2) Prior to circulation, the systems were flushed with 2 L of isotonic saline. Plasma samples were collected at defined time points (15–480 min) and analyzed for immunosuppressants, urea, and albumin. Chronic dialysis represents intermittent high-flow conditions, whereas acute dialysis mimics continuous low-flow therapy used in critically ill patients.
(§3) The clearance (C) of each compound during both the dialysis and the dynamic CytoSorb experiments was calculated using the first-order exponential decay formula:(2) C = V/t ×lnCo/Ct where V = plasma volume, t = treatment time [min], C0 = concentration before starting treatment, Ct = concentration at time t.

human whole blood [2] = assay: Whole blood cell model: anti-CD3 stimulation, cytokine measurement; assay type: cell-based; conditions: + Anti-CD3, + CytoSorb
Procedure: (§6) Subsequently, the blood was split into two experimental groups: one was treated with CytoSorb in a batch setup, and the other served as an untreated control, incubated under identical conditions at 37 °C on a roller mixer. Following treatment, all samples were allowed to rest for 4 h. After the resting period, blood samples were stimulated with either lipopolysaccharide (LPS) E. coli or with anti-CD3 antibodies. […] The stimulation was carried out for 4 h at 37 °C on a roller mixer. Thereafter, the blood samples were centrifuged, and the plasma was collected and stored at −80 °C. Leukocyte activation was assessed by quantification of IL-1β, IL-6, IL-8, and TNF-α.

[3] = Whole blood cell model: immunosuppressant serum levels after CytoSorb treatment; assay type: in vitro ADME, human; conditions: overnight incubation, p < 0.05, n = 6
Procedure: To investigate whether the in vitro depletion of immunosuppressants by CytoSorb affects immunosuppression, a whole blood cell model was established. The experiment was conducted over two consecutive days. A graphical overview of the setup is provided in Supplementary Figure S1. On day one, freshly drawn human whole blood was incubated overnight at 37 °C with various immunosuppressants, either individually or in combination, to allow for sufficient drug exposure prior to CytoSorb treatment.
Subsequently, the blood was split into two experimental groups: one was treated with CytoSorb in a batch setup, and the other served as an untreated control, incubated under identical conditions at 37 °C on a roller mixer. Following treatment, all samples were allowed to rest for 4 h. After the resting period, blood samples were stimulated with either lipopolysaccharide (LPS) E. coli or with anti-CD3 antibodies. LPS primarily activates monocytes and neutrophils via the TLR4/CD14/MD2 complex, while anti-CD3 specifically stimulates T cells. The stimulation was carried out for 4 h at 37 °C on a roller mixer. Thereafter, the blood samples were centrifuged, and the plasma was collected and stored at −80 °C. Leukocyte activation was assessed by quantification of IL-1β, IL-6, IL-8, and TNF-α.
(§4) MPA was determined using a validated test for the Cobas c311 autoanalyzer from Roche (Basel, Switzerland). 6-MP was quantified by reversed-phase HPLC [17, 18]. After precipitation of the plasma sample with ice cold methanol in ratio 1:5, 30 µL of the supernatant was injected into a Nukleosil 100-5C18, 4.6 × 150 mm C18 column (Macherey-Nagel, Düren, Germany), combined with an Onyx Monolithic C18, 4.6 × 5 mm guard column (Phenomenex, Torrance, CA, USA). The mobile phase consisted of methanol and deionised water (50:50) which was continuously pumped with a flow rate of 0.8 mL/min for five minutes. 6-MP was quantified with a retention time of 2.3 min using an UV detector (325 nm). The quantification of cytokines was determined by Magnetic Luminex Assay with a human premixed Multi Analyte Kit (R&D Systems, Minneapolis, MN, USA). The urea, albumin and total protein levels were measured with the cobas c311 automated analyzer with corresponding test kits from Roche (Penzberg, Germany).

[4] = parameters: method as in earlier work; conditions: literature; ref 23 (methylprednisolone), 24 (mycophenolate), 41 (6-mercaptopurine); cited from earlier work
[5] = Removal of immunosuppressants by chronic dialysis (ex vivo, plasma); assay type: in vitro ADME, human; conditions: for clearance: initial values
Procedure: as §1, §2, §3

[6] = literature; ref 21 (6-MP), 22 (CsA), 23 (MPR), 24 (MPA), 25 (TAC); cited from earlier work
[7] = Dynamic CytoSorb adsorption setup (scaled-down circuit, whole blood); assay type: in vitro ADME, human; conditions: for mean clearance rate: CytoSorb treatment, at 15 min, Equation (2); for adsorption (removal) by CytoSorb: dynamic ex vivo circuit, 400 mL human whole blood, 30 mL cartridge, 4 h
Procedure: To quantify the depletion of selected immunosuppressants during CytoSorb treatment under dynamic conditions, a scaled-down extracorporeal circulation system was established, consisting of a 30 mL CytoSorb adsorption cartridge and a pediatric tubing set filled with 400 mL of freshly drawn human whole blood (Figure 1b). To distinguish between drug removal by adsorption versus uptake by blood components, a control circuit with an identical setup but an empty cartridge was run in parallel for each experiment. Whole blood from two healthy donors of the same blood group was pooled, anticoagulated with citrate (final concentration: 7 mM), spiked with the immunosuppressants, and divided into two 400 mL blood bags.
Prior to circulation, the entire system was flushed with isotonic saline. Then, one of the prepared blood bags (Group 1 or Group 2) was connected to the circuit and circulated for 30 min at 37 °C without the adsorber cartridge to allow for equilibration. Following this equilibration, a baseline sample (0 min) was collected, and the adsorption column was introduced into the circuit. In the adsorption circuit, samples were collected at 15, 30, 60, 120, 180 and 240 min. In the control circuit, samples were taken at baseline and after 240 min. All blood samples were centrifuged (3500× g, 10 min) to separate plasma, which was stored at −80 °C until further analysis.
as §3, §4

[8] = Static CytoSorb adsorption setup (spiked plasma with CytoSorb resin); assay type: in vitro ADME, human; conditions: plasma:resin 1:10 v/v, 60 min, 37 °C, n = 3
Procedure: (§5) Plasma was obtained by centrifugation (3500× g, 10 min) from citrate-anticoagulated human whole blood and spiked with immunosuppressants to defined target concentrations (Table 1). To evaluate adsorption, plasma was incubated with the CytoSorb resin at 1:10 (v/v) for 60 min at 37 °C on a roller mixer. In parallel, a separate aliquot of spiked plasma was incubated with autologous blood cells (1:1, v/v) to assess cellular uptake of immunosuppressants. Untreated spiked plasma served as control (Figure 1a). Samples were collected before and after incubation for subsequent analysis.
as §4

human whole blood [9] = assay: Whole blood cell model: LPS stimulation, cytokine measurement; assay type: cell-based; conditions: + CytoSorb
Procedure: as §6

[10] = Determination of protein binding by ultrafiltration; assay type: in vitro ADME; conditions: human plasma, ultrafiltration 30 kDa cutoff; read-out: Protein Binding in Plasma, Current Study (converted)
Procedure: To assess protein binding of the tested immunosuppressants, human plasma was spiked with the respective drugs and urea as a freely diffusible control. Samples were then subjected to ultrafiltration (30 kDa cutoff, 15,000× g, 20 min). The protein-bound fraction was calculated using the following formula:(1) protein binding %= 1−Cfiltrate/Cplasma where cplasma is the concentration of each compound in plasma and cfiltrate is its concentration in the ultrafiltrate.

autologous blood cells = assay: Cellular uptake of immunosuppressants by autologous blood cells (static setup); assay type: in vitro ADME, human; conditions: spiked plasma with autologous blood cells 1:1 v/v, n = 3
Procedure: as §5
MPA was determined using a validated test for the Cobas c311 autoanalyzer from Roche (Basel, Switzerland). 6-MP was quantified by reversed-phase HPLC [17, 18]. […] 6-MP was quantified with a retention time of 2.3 min using an UV detector (325 nm). The quantification of cytokines was determined by Magnetic Luminex Assay with a human premixed Multi Analyte Kit (R&D Systems, Minneapolis, MN, USA). The urea, albumin and total protein levels were measured with the cobas c311 automated analyzer with corresponding test kits from Roche (Penzberg, Germany).

SMILES	removal by dialysis (in words) [1]	clearance ([1]; after 8 h)	clearance ([1]; highest value reached)	IL-1β serum level (human whole blood [2]; test 1) [pg/mL]	IL-6 serum level (human whole blood [2]; test 1) [pg/mL]	IL-8 serum level (human whole blood [2]; test 1) [pg/mL]	TNF-α serum level (human whole blood [2]; test 1) [pg/mL]	IL-1β serum level (human whole blood [2]; test 2) [pg/mL]	IL-6 serum level (human whole blood [2]; test 2) [pg/mL]	IL-8 serum level (human whole blood [2]; test 2) [pg/mL]	TNF-α serum level (human whole blood [2]; test 2) [pg/mL]	IL-1β serum level (human whole blood [2]; test 3) [pg/mL]	IL-6 serum level (human whole blood [2]; test 3) [pg/mL]	IL-8 serum level (human whole blood [2]; test 3) [pg/mL]	TNF-α serum level (human whole blood [2]; test 3) [pg/mL]	reduction in serum level following CytoSorb treatment (in words) [3]	volume of distribution (Vd) [4]	removal by dialysis (in words) [5]	clearance [5]	Protein Binding in Plasma, Reference [6]	also measured
C[C@H]1C[C@@H]2[C@H]([C@@H](O)C[C@@]3(C)[C@H]2CC[C@]3(O)C(=O)CO)[C@@]2(C)C=CC(=O)C=C12 [MPR, methylprednisolone]	moderate removal	below 10 mL/min	≤ 28 mL/min	0	1	171	43	44	16	242	57	70	30	686	41	significant reduction	≈ 1.4 L/kg	high removal	~ 75 mL/min	77 [23] %	mean clearance rate [7]: ~49 mL/min; reduction of serum levels by CytoSorb (abstract) ([7]; as stated in the abstract, experiment not specified): 92 ± 3%; adsorption (removal) by CytoSorb [7]: 92 ± 3%; reduction of level in plasma by CytoSorb [8]: 91 ± 2%; IL-1β serum level (human whole blood [9]; test 1): 354 pg/mL; IL-6 serum level (human whole blood [9]; test 1): 3786 pg/mL; IL-8 serum level (human whole blood [9]; test 1): 6337 pg/mL; TNF-α serum level (human whole blood [9]; test 1): 2920 pg/mL; IL-1β serum level (human whole blood [9]; test 2): 26 pg/mL; IL-6 serum level (human whole blood [9]; test 2): 73 pg/mL; IL-8 serum level (human whole blood [9]; test 2): 1630 pg/mL; TNF-α serum level (human whole blood [9]; test 2): 416 pg/mL; IL-1β serum level (human whole blood [9]; test 3): 190 pg/mL; IL-6 serum level (human whole blood [9]; test 3): 3799 pg/mL; IL-8 serum level (human whole blood [9]; test 3): 7104 pg/mL; TNF-α serum level (human whole blood [9]; test 3): 1250 pg/mL; fraction unbound [10]: 0.066
Sc1ncnc2nc[nH]c12 [6-MP, 6-mercaptopurine]	efficiently removed	below 10 mL/min	up to 30 mL/min	0	3	205	12	75	381	4175	46	70	30	686	41	significant reduction	≈ 0.9 L/kg	efficiently removed	~ 190 mL/min	39 [21] %	absorbed / reduced by blood cells (autologous blood cells): 36 ± 6%; mean clearance rate [7]: ~31 mL/min; adsorption (removal) by CytoSorb [7]: 47 ± 16%; reduction of level in plasma by CytoSorb [8]: 33 ± 11%; IL-1β serum level (human whole blood [9]; test 1): 354 pg/mL; IL-6 serum level (human whole blood [9]; test 1): 3786 pg/mL; IL-8 serum level (human whole blood [9]; test 1): 6337 pg/mL; TNF-α serum level (human whole blood [9]; test 1): 2920 pg/mL; IL-1β serum level (human whole blood [9]; test 2): 44 pg/mL; IL-6 serum level (human whole blood [9]; test 2): 730 pg/mL; IL-8 serum level (human whole blood [9]; test 2): 2253 pg/mL; TNF-α serum level (human whole blood [9]; test 2): 1762 pg/mL; IL-1β serum level (human whole blood [9]; test 3): 190 pg/mL; IL-6 serum level (human whole blood [9]; test 3): 3799 pg/mL; IL-8 serum level (human whole blood [9]; test 3): 7104 pg/mL; TNF-α serum level (human whole blood [9]; test 3): 1250 pg/mL; fraction unbound [10]: 0.662

— paper PMC12655457, “Does CytoSorb Interfere with Immunosuppression? A Pharmacokinetic and Functional Evaluation” (Pharmaceutics, 2025)
